Reference: US10710986B2, “PD-1/PD-L1 inhibitors” (Gilead Sciences, Inc., priority 2018, dated 2020)
pIC50: −log10 of the molar value.

Target: PD-1/PD-L1 (Homo sapiens (Human), UniProt Q9NZQ7)
Experiment: PD-1/PD-L1 biochemical protein-protein interaction assay (ALPHA)
Conditions: 0.3 nM His tagged PD-L1, 2.5 nM biotinylated Fc-PD-1, 60 minutes at 25° C., read-out: IC50 PD-L1-PD1

PD-1/PD-L1, sequence (Q9NZQ7 19-238): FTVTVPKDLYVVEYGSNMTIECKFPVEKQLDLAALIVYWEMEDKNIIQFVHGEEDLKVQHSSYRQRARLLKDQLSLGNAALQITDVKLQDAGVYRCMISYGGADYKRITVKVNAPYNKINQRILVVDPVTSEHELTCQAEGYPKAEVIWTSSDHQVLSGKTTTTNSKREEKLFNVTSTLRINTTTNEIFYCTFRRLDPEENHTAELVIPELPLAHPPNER

SMILES | pIC50
COc1nc(-c2cccc(-c3cccc(-c4cnc(CNC5CC6(C5)CS(=O)(=O)C6)c(OC)n4)c3Cl)c2Cl)cnc1CNC[C@@H]1CCC(=O)N1 [compound 363] | 9.37
COc1nc(-c2cccc(-c3cccc(-c4cnc(CNC[C@@H]5CCC(=O)N5)c(OC)n4)c3Cl)c2Cl)cnc1CNCCn1ccccc1=O [compound 370] | 10.19
COc1nc(-c2cccc(-c3cccc(-c4cnc(CNC[C@@H]5CCC(=O)N5)c(OC)n4)c3Cl)c2Cl)cnc1CNCCN1CCCC1=O [compound 372] | 9.98
COc1nc(-c2cccc(-c3cccc(-c4cnc(CN[C@@H]5CCC[C@@H]5O)c(OC)n4)c3Cl)c2Cl)cnc1CNC[C@@H]1CCC(=O)N1 [compound 381] | 10.07
COc1nc(-c2cccc(-c3cccc(-c4cnc(CNCC(C)(C)O)c(OC)n4)c3Cl)c2Cl)cnc1CNCC(C)(C)O [compound 382] | 9.54
COc1nc(-c2cccc(-c3cccc(-c4cnc(CN[C@@H]5CCC[C@@H]5O)c(OC)n4)c3Cl)c2Cl)cnc1CN[C@@H]1CCC[C@@H]1O [compound 383] | 9.05
COc1nc(-c2cccc(-c3cccc(-c4cnc(CNC(C)(C)CO)c(OC)n4)c3Cl)c2Cl)cnc1CNC(C)(C)CO [compound 384] | 9.81
COc1nc(-c2cccc(-c3cccc(-c4cnc([C@H](C)N)c(OC)n4)c3Cl)c2Cl)cnc1[C@H](C)N [compound 385] | 9.53
COc1nc(-c2cccc(-c3cccc(-c4cnc([C@@H](C)N)c(OC)n4)c3Cl)c2Cl)cnc1[C@@H](C)N [compound 386] | 9.06
COc1nc(-c2cccc(-c3cccc(-c4cnc(CN[C@@H]5CC[C@@H]6CC(=O)N[C@@H]65)c(OC)n4)c3Cl)c2Cl)cnc1CNC[C@@H]1CCC(=O)N1 [compound 387] | 9.20
COc1nc(-c2cccc(-c3cccc(-c4cnc(CN[C@@H]5CC[C@@H]6CC(=O)N[C@@H]65)c(OC)n4)c3Cl)c2Cl)cnc1CN[C@@H]1CC[C@@H]2CC(=O)N[C@@H]21 [compound 388] | 8.91
COc1nc(-c2cccc(-c3cccc(-c4cnc(CN5CC6(CNC(=O)C6)C5)c(OC)n4)c3Br)c2Cl)cnc1CN1CC2(CNC(=O)C2)C1 [compound 389] | 9.68
COc1nc(-c2cccc(-c3cccc(-c4cnc(CN5CC6(CCC(=O)N6)C5)c(OC)n4)c3Br)c2Cl)cnc1CN1CC2(CCC(=O)N2)C1 [compound 390] | 9.84
COc1nc(-c2cccc(-c3cccc(-c4cnc(CN5CC(O)C5)c(OC)n4)c3Br)c2Cl)cnc1CN1CC(O)C1 [compound 391] | 9.63
COc1nc(-c2cccc(-c3cccc(-c4cnc(CNC[C@H]5CCC(=O)N5)c(OC)n4)c3Br)c2Cl)cnc1CNC[C@H]1CCC(=O)N1 [compound 392] | 9.61
COc1nc(-c2cccc(-c3cccc(-c4cnc(CN5CC6(CNC(=O)C6)C5)c(OC)n4)c3Br)c2F)cnc1CN1CC2(CNC(=O)C2)C1 [compound 393] | 8.65
COc1nc(-c2cccc(-c3cccc(-c4cnc(CN5CC6(CCC(=O)N6)C5)c(OC)n4)c3Br)c2F)cnc1CN1CC2(CCC(=O)N2)C1 [compound 394] | 8.75
COc1nc(-c2cccc(-c3cccc(-c4cnc(CN5CC(O)C5)c(OC)n4)c3Br)c2F)cnc1CN1CC(O)C1 [compound 395] | 8.03
COc1nc(-c2cccc(-c3cccc(-c4cnc(CNC[C@@H]5CCC(=O)N5)c(OC)n4)c3Br)c2F)cnc1CNC[C@@H]1CCC(=O)N1 [compound 396] | 8.70

SMILES | pIC50
COc1nc(-c2cc(F)cc(-c3cc(F)cc(-c4cnc(CNC[C@@H]5CCC(=O)N5)c(OC)n4)c3Cl)c2Cl)cnc1CNC[C@@H]1CCC(=O)N1 [compound 397] | 9.25
COc1nc(-c2cccc(-c3cc(F)cc(-c4cnc(CNC[C@@H]5CCC(=O)N5)c(OC)n4)c3Cl)c2Cl)cnc1CNC[C@@H]1CCC(=O)N1 [compound 398] | 9.71
COc1nc(-c2cccc(-c3cc(F)cc(-c4cnc(CN5CC(O)C5)c(OC)n4)c3Cl)c2Cl)cnc1CN1CC(O)C1 [compound 399] | 9.49
COc1nc(-c2cccc(-c3cccc(-c4cnc(CN5CC(OC)C5)c(OC)n4)c3Cl)c2Cl)cnc1CN1CC(OC)C1 [compound 400] | 9.76
COc1nc(-c2cccc(-c3cccc(-c4cnc(CN(C)C)c(OC)n4)c3Cl)c2Cl)cnc1CN(C)C [compound 401] | 9.53
CNCc1ncc(-c2cccc(-c3cccc(-c4cnc(CNC)c(OC)n4)c3Cl)c2Cl)nc1OC [compound 402] | 9.76
COc1nc(-c2cccc(-c3cccc(-c4cnc(CNC[C@@H]5CCC(=O)N5)c(OC)n4)c3Cl)c2Cl)cnc1CNCC1CC(=O)NC1=O (stereo partly drawn) [compound 403] | 10.15
COc1nc(-c2cccc(-c3cccc(-c4cnc(CN5CCC(c6cnccn6)C5)c(OC)n4)c3Cl)c2Cl)cnc1CNC[C@@H]1CCC(=O)N1 (stereo partly drawn) [compound 404] | 10.15
COc1nc(-c2cccc(-c3cccc(-c4cnc(CN5CCC(c6cccnc6)C5)c(OC)n4)c3Cl)c2Cl)cnc1CNC[C@@H]1CCC(=O)N1 (stereo partly drawn) [compound 405] | 9.80
COc1nc(-c2cccc(-c3cccc(-c4cnc(CN5CCC(c6ccccn6)C5)c(OC)n4)c3Cl)c2Cl)cnc1CNC[C@@H]1CCC(=O)N1 (stereo partly drawn) [compound 406] | 9.55
COc1nc(-c2cccc(-c3cccc(-c4cnc(CN5CCC(c6ncccn6)C5)c(OC)n4)c3Cl)c2Cl)cnc1CNC[C@@H]1CCC(=O)N1 (stereo partly drawn) [compound 408] | 9.86
COc1nc(-c2cccc(-c3cccc(-c4cnc(CN5CCC(C6CCCO6)C5)c(OC)n4)c3Cl)c2Cl)cnc1CNC[C@@H]1CCC(=O)N1 (stereo partly drawn) [compound 409] | 9.91
COc1nc(-c2cccc(-c3cccc(-c4cnc(CN5CCC(c6ccncc6)C5)c(OC)n4)c3Cl)c2Cl)cnc1CNC[C@@H]1CCC(=O)N1 (stereo partly drawn) [compound 410] | 9.50
COc1nc(-c2cccc(-c3cccc(-c4cnc(CNC[C@@H]5CCC(=O)N5)c(OC)n4)c3Cl)c2Cl)cnc1CNCCc1cncc(O)c1 [compound 412] | 9.73
COc1nc(-c2cccc(-c3cccc(-c4cnc(CNC[C@@H]5CCC(=O)N5)c(OC)n4)c3Cl)c2Cl)cnc1CNCC(O)CN1CCCC1 (stereo partly drawn) [compound 413] | 9.79
COc1ccnc2c1CN(Cc1ncc(-c3cccc(-c4cccc(-c5cnc(CNC[C@@H]6CCC(=O)N6)c(OC)n5)c4Cl)c3Cl)nc1OC)C2 [compound 414] | 9.25
COc1nc(-c2cccc(-c3cccc(-c4cnc(CNC5CCN(C(=O)c6ccoc6)CC5)c(OC)n4)c3Cl)c2Cl)cnc1CNC[C@@H]1CCC(=O)N1 [compound 415] | 9.71
COc1nc(-c2cccc(-c3cccc(-c4cnc(CNC[C@@H]5CCC(=O)N5)c(OC)n4)c3Cl)c2Cl)cnc1CNCCc1ccccn1 [compound 417] | 9.71
COc1nc(-c2cccc(-c3cccc(-c4cnc(CNC[C@@H]5CCC(=O)N5)c(OC)n4)c3Cl)c2Cl)cnc1CNCc1ccccn1 [compound 418] | 9.66

Next, values leading:

pIC50 | SMILES
10.13 | COc1nc(-c2cccc(-c3cccc(-c4cnc(CN[C@H]5C[C@@H](NC(C)=O)C5)c(OC)n4)c3Cl)c2Cl)cnc1CNC[C@@H]1CCC(=O)N1 [compound 362]
9.61 | COc1nc(-c2cccc(-c3cccc(-c4cnc(CN[C@H]5C[C@H](OC)C5)c(OC)n4)c3Cl)c2Cl)cnc1CNC[C@@H]1CCC(=O)N1 [compound 364]
10.15 | COc1nc(-c2cccc(-c3cccc(-c4cnc(CN[C@H]5C[C@@H](OC)C5)c(OC)n4)c3Cl)c2Cl)cnc1CNC[C@@H]1CCC(=O)N1 [compound 365]
9.94 | COc1nc(-c2cccc(-c3cccc(-c4cnc(CN[C@H]5C[C@H](C(C)(C)O)C5)c(OC)n4)c3Cl)c2Cl)cnc1CNC[C@@H]1CCC(=O)N1 [compound 366]
10.19 | COc1nc(-c2cccc(-c3cccc(-c4cnc(CN5CC6(C5)CS(=O)(=O)C6)c(OC)n4)c3Cl)c2Cl)cnc1CNC[C@@H]1CCC(=O)N1 [compound 367]
10.19 | COc1nc(-c2cccc(-c3cccc(-c4cnc(CN5CC6(CNC(=O)C6)C5)c(OC)n4)c3Cl)c2Cl)cnc1CNC[C@@H]1CCC(=O)N1 [compound 368]
10.11 | COc1nc(-c2cccc(-c3cccc(-c4cnc(CN5CC(NC(C)=O)C5)c(OC)n4)c3Cl)c2Cl)cnc1CNC[C@@H]1CCC(=O)N1 [compound 369]
9.67 | COc1nc(-c2cccc(-c3cccc(-c4cnc(CN5CC6(CCC(=O)N6)C5)c(OC)n4)c3Cl)c2Cl)cnc1CNC[C@@H]1CCC(=O)N1 [compound 371]
9.89 | COc1nc(-c2cccc(-c3cccc(-c4cnc(CNC[C@@H]5CCC(=O)N5)c(OC)n4)c3Cl)c2Cl)cnc1CNCCNC(C)=O [compound 373]
9.74 | COc1nc(-c2cccc(-c3cccc(-c4cnc(CNC[C@@H]5CCC(=O)N5)c(OC)n4)c3Cl)c2Cl)cnc1CNCCO [compound 374]
9.34 | COc1nc(-c2cccc(-c3cccc(-c4cnc(CNC(C)(C)CNC(C)=O)c(OC)n4)c3Cl)c2Cl)cnc1CNC[C@@H]1CCC(=O)N1 [compound 375]
9.68 | COc1nc(-c2cccc(-c3cccc(-c4cnc(CNCC(C)(C)NC(C)=O)c(OC)n4)c3Cl)c2Cl)cnc1CNC[C@@H]1CCC(=O)N1 [compound 376]
10.01 | COc1nc(-c2cccc(-c3cccc(-c4cnc(CNC(C)(C)CO)c(OC)n4)c3Cl)c2Cl)cnc1CNC[C@@H]1CCC(=O)N1 [compound 377]
9.40 | COc1nc(-c2cccc(-c3cccc(-c4cnc(CNCC(C)(C)O)c(OC)n4)c3Cl)c2Cl)cnc1CNC[C@@H]1CCC(=O)N1 [compound 378]
9.81 | COc1nc(-c2cccc(-c3cccc(-c4cnc(CN5CC(O)C5)c(OC)n4)c3Cl)c2Cl)cnc1CNC[C@@H]1CCC(=O)N1 [compound 379]
9.69 | COc1nc(-c2cccc(-c3cccc(-c4cnc(CN5CC[C@@H](O)C5)c(OC)n4)c3Cl)c2Cl)cnc1CNC[C@@H]1CCC(=O)N1 [compound 380]
9.73 | COc1nc(-c2cccc(-c3cccc(-c4cnc(CN5CCC(O)(CC#N)C5)c(OC)n4)c3Cl)c2Cl)cnc1CNC[C@@H]1CCC(=O)N1 (stereo partly drawn) [compound 407]
9.49 | COc1nc(-c2cccc(-c3cccc(-c4cnc(CN5CCC(C6CCOC6)C5)c(OC)n4)c3Cl)c2Cl)cnc1CNC[C@@H]1CCC(=O)N1 (stereo partly drawn) [compound 411]
9.85 | COc1nc(-c2cccc(-c3cccc(-c4cnc(CNC5CCN(C)C(=O)C5)c(OC)n4)c3Cl)c2Cl)cnc1CNC[C@@H]1CCC(=O)N1 (stereo partly drawn) [compound 416]
